{"source": "the NIST ThermoML archive (doi:10.1016/j.tca.2019.05.006)", "assay": "molar heat capacity at constant pressure", "conditions": "101.33 kPa, Crystal, DSC", "note": "Numbers after ± are expanded uncertainties.", "data": [{"smiles": "[Cu+2].[O-2]", "note": "[copper(II) oxide]", "values": [{"measurement": "molar heat capacity at constant pressure", "setting": "300 K", "value": "44.4 ± 22", "unit": "J/K/mol"}, {"measurement": "molar heat capacity at constant pressure", "setting": "325 K", "value": "45.8 ± 28", "unit": "J/K/mol"}, {"measurement": "molar heat capacity at constant pressure", "setting": "350 K", "value": "46.8 ± 28", "unit": "J/K/mol"}, {"measurement": "molar heat capacity at constant pressure", "setting": "375 K", "value": "47.7 ± 22", "unit": "J/K/mol"}, {"measurement": "molar heat capacity at constant pressure", "setting": "400 K", "value": "48.5 ± 26", "unit": "J/K/mol"}, {"measurement": "molar heat capacity at constant pressure", "setting": "425 K", "value": "49.2 ± 24", "unit": "J/K/mol"}, {"measurement": "molar heat capacity at constant pressure", "setting": "450 K", "value": "49.7 ± 28", "unit": "J/K/mol"}, {"measurement": "molar heat capacity at constant pressure", "setting": "475 K", "value": "50.3 ± 24", "unit": "J/K/mol"}, {"measurement": "molar heat capacity at constant pressure", "setting": "500 K", "value": "50.8 ± 26", "unit": "J/K/mol"}, {"measurement": "molar heat capacity at constant pressure", "setting": "525 K", "value": "51.2 ± 28", "unit": "J/K/mol"}, {"measurement": "molar heat capacity at constant pressure", "setting": "550 K", "value": "51.6 ± 26", "unit": "J/K/mol"}, {"measurement": "molar heat capacity at constant pressure", "setting": "575 K", "value": "51.9 ± 26", "unit": "J/K/mol"}, {"measurement": "molar heat capacity at constant pressure", "setting": "600 K", "value": "52.3 ± 22", "unit": "J/K/mol"}, {"measurement": "molar heat capacity at constant pressure", "setting": "625 K", "value": "52.6 ± 26", "unit": "J/K/mol"}, {"measurement": "molar heat capacity at constant pressure", "setting": "650 K", "value": "52.9 ± 28", "unit": "J/K/mol"}, {"measurement": "molar heat capacity at constant pressure", "setting": "675 K", "value": "53.2 ± 28", "unit": "J/K/mol"}, {"measurement": "molar heat capacity at constant pressure", "setting": "700 K", "value": "53.5 ± 24", "unit": "J/K/mol"}, {"measurement": "molar heat capacity at constant pressure", "setting": "725 K", "value": "53.8 ± 26", "unit": "J/K/mol"}, {"measurement": "molar heat capacity at constant pressure", "setting": "750 K", "value": "54 ± 28", "unit": "J/K/mol"}, {"measurement": "molar heat capacity at constant pressure", "setting": "775 K", "value": "54.3 ± 26", "unit": "J/K/mol"}, {"measurement": "molar heat capacity at constant pressure", "setting": "800 K", "value": "54.5 ± 24", "unit": "J/K/mol"}, {"measurement": "molar heat capacity at constant pressure", "setting": "825 K", "value": "54.7 ± 24", "unit": "J/K/mol"}]}]}
